Assay type in all cases: cell-based
Assay [1] deals with T1, human GLP-1 receptor (GLP-1R) (Homo sapiens, UniProt P43220).
T1 construct: expressed in transfected cells
Kind of assay: cAMP assay, human GLP-1R cells. An outline of the steps: (§1)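 Peptide-stimulated cAMP measured by two-step HTRF after a 30 min room-temperature incubation with receptor-expressing cells (hGLP-1R, hGIPR at 1×10^5 cells/ml; hGCGR at 2×10^5 cells/ml). Duplicate dilutions; EC50 from 4-parameter logistic fit of % Delta F.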
On the technique in general: Cyclic AMP is a second messenger, typically raised through Gs and lowered through Gi signalling.

Assay [2] deals with T2, human glucose-dependent insulinotropic peptide receptor (GIPR) (Homo sapiens, UniProt P48546).
T2 construct: expressed in transfected cells
T2 sequence (P48546 22-466): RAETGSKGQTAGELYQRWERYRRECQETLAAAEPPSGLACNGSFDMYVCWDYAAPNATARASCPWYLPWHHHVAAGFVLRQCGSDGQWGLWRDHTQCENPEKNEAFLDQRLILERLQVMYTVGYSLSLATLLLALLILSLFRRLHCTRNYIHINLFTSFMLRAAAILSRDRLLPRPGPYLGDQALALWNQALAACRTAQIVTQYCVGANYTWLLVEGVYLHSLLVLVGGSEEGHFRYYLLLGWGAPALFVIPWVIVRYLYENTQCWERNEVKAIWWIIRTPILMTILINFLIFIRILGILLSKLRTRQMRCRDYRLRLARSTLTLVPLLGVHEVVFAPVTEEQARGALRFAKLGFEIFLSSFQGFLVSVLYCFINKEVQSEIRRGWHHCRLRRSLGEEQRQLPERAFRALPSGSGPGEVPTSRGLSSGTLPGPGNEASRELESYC
Kind of assay: cAMP assay, human GIPR cells. The following applies: cAMP assay. An outline of the steps:
as §1

The target of assay [3] is T3, human glucagon receptor (GCGR) (Homo sapiens, UniProt P47871).
T3 construct: expressed in transfected cells
In words: cAMP assay, human GCGR cells. The note with it: cAMP assay. The gist of the method:
as §1

The mark [4] stands for this setting: cAMP assay, first determination (n1), read-out: Primary assay EC50 GLP-1R n1.
Where [5] appears, read: cAMP assay, second determination (n2), read-out: Primary assay EC50 GLP-1R n2.
The mark [6] stands for this setting: mean of n1 and n2, read-out: Mean pM GLP-1R.
Setting [7] is: first determination (n1), read-out: Primary assay EC50 GIP-R (n1).
The mark [8] stands for this setting: second determination (n2), read-out: Primary assay EC50 GIP-R (n2).
The mark [9] stands for this setting: first determination (n1), read-out: Primary assay EC50 Gluc-R (n1).
The mark [10] stands for this setting: second determination (n2), read-out: Primary assay EC50 Gluc-R (n2).

Read-outs that look alike come from different tables or passages of the source. Numbered stars: 1 amine (or outer) side, 2 acyl side, 3 side chain; on linkers, the order of the positions; unused ones are H or OH. Square brackets hold non-standard residues; d marks the D form. Side chains are listed from the residue outwards. Peptide text beside a SMILES is read from it. * marks the point of attachment. γGlu = O=C(O)[C@H](CCC(=O)[*:2])N[*:1]; Palmitoyl = CCCCCCCCCCCCCCCC(=O)*; αMeF = C[C@](N)(Cc1ccccc1)C(=O)O; αMeK = C[C@](N)(CCCCN)C(=O)O; αMeS = C[C@](N)(CO)C(=O)O; Aib = CC(C)(N)C(=O)O Some results are limits rather than exact numbers.

T3 sequence (P47871 26-477): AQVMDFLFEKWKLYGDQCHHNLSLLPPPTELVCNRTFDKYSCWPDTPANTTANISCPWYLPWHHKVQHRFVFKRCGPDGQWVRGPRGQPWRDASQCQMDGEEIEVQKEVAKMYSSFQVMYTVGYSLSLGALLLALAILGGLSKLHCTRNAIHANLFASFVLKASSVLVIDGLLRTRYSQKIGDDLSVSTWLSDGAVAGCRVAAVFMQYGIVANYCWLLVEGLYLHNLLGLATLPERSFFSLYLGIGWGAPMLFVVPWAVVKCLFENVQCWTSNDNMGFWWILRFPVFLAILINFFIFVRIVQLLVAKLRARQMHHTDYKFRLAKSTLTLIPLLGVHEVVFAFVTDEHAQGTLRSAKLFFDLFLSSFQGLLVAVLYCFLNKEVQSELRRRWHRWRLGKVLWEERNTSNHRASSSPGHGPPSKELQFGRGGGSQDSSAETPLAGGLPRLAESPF
T1 sequence (P43220 24-463): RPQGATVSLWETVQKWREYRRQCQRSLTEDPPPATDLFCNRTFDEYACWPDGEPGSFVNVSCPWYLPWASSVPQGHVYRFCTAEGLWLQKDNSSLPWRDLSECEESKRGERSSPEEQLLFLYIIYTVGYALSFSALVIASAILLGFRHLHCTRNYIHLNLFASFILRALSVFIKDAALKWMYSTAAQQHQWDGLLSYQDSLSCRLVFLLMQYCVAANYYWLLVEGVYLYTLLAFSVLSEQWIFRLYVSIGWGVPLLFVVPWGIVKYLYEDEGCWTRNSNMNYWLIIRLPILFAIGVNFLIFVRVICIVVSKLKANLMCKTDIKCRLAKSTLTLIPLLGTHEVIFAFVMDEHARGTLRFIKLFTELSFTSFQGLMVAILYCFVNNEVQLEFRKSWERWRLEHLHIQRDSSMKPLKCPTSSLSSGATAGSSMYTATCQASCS

Turning to `CCCCCCCCCCCCCCCC(=O)N[C@@H](CCC(=O)NCCCC[C@H](NC(=O)[C@@H](NC(=O)[C@](C)(Cc1ccccc1)NC(=O)[C@H](CO)NC(=O)CNC(=O)[C@H](CCC(=O)O)NC(=O)C(C)(C)NC(=O)[C@@H](N)Cc1c[nH]cn1)[C@@H](C)O)C(=O)N[C@@H](CC(=O)O)C(=O)N[C@H](C(=O)N[C@@](C)(CO)C(=O)N[C@@H](CO)C(=O)N[C@@](C)(Cc1ccccc1)C(=O)N[C@@H](CC(C)C)C(=O)N[C@@H](CCC(=O)O)C(=O)NCC(=O)N[C@@H](CCC(=O)O)C(=O)N[C@@H](C)C(=O)N[C@@H](C)C(=O)N[C@@](C)(CCCCN)C(=O)N[C@@H](CCC(=O)O)C(=O)N[C@@](C)(Cc1ccccc1)C(=O)N[C@H](C(=O)N[C@@H](C)C(=O)N[C@@](C)(Cc1ccccc1)C(=O)N[C@H](C(=O)N[C@H](C(=O)N[C@@](C)(CCCCN)C(=O)NCC(=O)NCC(N)=O)C(C)C)C(C)C)[C@@H](C)CC)C(C)C)C(=O)O` [compound 92] (H-H[Aib]EGS[αMeF]TK([γGlu-Palmitoyl])DV[αMeS]S[αMeF]LEGEAA[αMeK]E[αMeF]IA[αMeF]VV[αMeK]GG-NH2; N-terminus assumed), the EC50 is 450 pM in assay [1] (setting [4]); 390 pM in assay [1] (setting [5]); 423 pM in assay [1] (setting [6]); at least 28 nM in assay [2] (setting [7]); at least 28 nM in assay [2] (setting [8]); at least 28 nM in assay [3] (setting [9]). For the same compound, the EC50 in assay [3] (setting [10]) was at least 28 nM.

On to `CCCCCCCCCCCCCCCC(=O)N[C@@H](CCC(=O)NCCCC[C@H](NC(=O)[C@H](CO)NC(=O)CNC(=O)[C@H](CCC(=O)O)NC(=O)C(C)(C)NC(=O)[C@@H](N)Cc1c[nH]cn1)C(=O)N[C@H](C(=O)N[C@@H](CO)C(=O)N[C@@H](CC(=O)O)C(=O)N[C@H](C(=O)N[C@@](C)(CO)C(=O)N[C@@H](CO)C(=O)N[C@@](C)(Cc1ccccc1)C(=O)N[C@@H](CC(C)C)C(=O)N[C@@H](CCC(=O)O)C(=O)NCC(=O)N[C@@H](CCC(=O)O)C(=O)N[C@@H](C)C(=O)N[C@@H](C)C(=O)N[C@@](C)(CCCCN)C(=O)N[C@@H](CCC(=O)O)C(=O)N[C@@](C)(Cc1ccccc1)C(=O)N[C@H](C(=O)N[C@@H](C)C(=O)N[C@@](C)(Cc1ccccc1)C(=O)N[C@H](C(=O)N[C@H](C(=O)N[C@@](C)(CCCCN)C(=O)NCC(=O)NCC(N)=O)C(C)C)C(C)C)[C@@H](C)CC)C(C)C)[C@@H](C)O)C(=O)O` [compound 94], for which the EC50 in assay [1] (setting [4]) is 140 pM; in assay [1] (setting [5]), 320 pM; in assay [1] (setting [6]) it was 228 pM; in assay [2] (setting [7]), at least 28 nM; in assay [2] (setting [8]), at least 28 nM; in assay [3] (setting [9]), at least 28 nM. Further, the EC50 in assay [3] (setting [10]) was at least 28 nM.

Consider `CCCCCCCCCCCCCCCC(=O)N[C@@H](CCC(=O)NCCCC[C@H](NC(=O)CNC(=O)[C@H](CCC(=O)O)NC(=O)C(C)(C)NC(=O)[C@@H](N)Cc1c[nH]cn1)C(=O)N[C@@](C)(Cc1ccccc1)C(=O)N[C@H](C(=O)N[C@@H](CO)C(=O)N[C@@H](CC(=O)O)C(=O)N[C@H](C(=O)N[C@@](C)(CO)C(=O)N[C@@H](CO)C(=O)N[C@@](C)(Cc1ccccc1)C(=O)N[C@@H](CC(C)C)C(=O)N[C@@H](CCC(=O)O)C(=O)NCC(=O)N[C@@H](CCC(=O)O)C(=O)N[C@@H](C)C(=O)N[C@@H](C)C(=O)N[C@@](C)(CCCCN)C(=O)N[C@@H](CCC(=O)O)C(=O)N[C@@](C)(Cc1ccccc1)C(=O)N[C@H](C(=O)N[C@@H](C)C(=O)N[C@@](C)(Cc1ccccc1)C(=O)N[C@H](C(=O)N[C@H](C(=O)N[C@@](C)(CCCCN)C(=O)NCC(=O)NCC(N)=O)C(C)C)C(C)C)[C@@H](C)CC)C(C)C)[C@@H](C)O)C(=O)O` [compound 95] (H-H[Aib]EGK([γGlu-Palmitoyl])[αMeF]TSDV[αMeS]S[αMeF]LEGEAA[αMeK]E[αMeF]IA[αMeF]VV[αMeK]GG-NH2; N-terminus assumed), for which the EC50 is 260 pM in assay [1] (setting [4]); 190 pM in assay [1] (setting [5]); 224 pM in assay [1] (setting [6]); at least 28 nM in assay [2] (setting [7]); at least 28 nM in assay [2] (setting [8]); at least 28 nM in assay [3] (setting [9]). Moreover, the EC50 in assay [3] (setting [10]) was at least 28 nM.

Regarding `CCCCCCCCCCCCCCCC(=O)N[C@@H](CCC(=O)NCCCC[C@H](NC(=O)[C@H](CCC(=O)O)NC(=O)C(C)(C)NC(=O)[C@@H](N)Cc1c[nH]cn1)C(=O)N[C@@H](CO)C(=O)N[C@@](C)(Cc1ccccc1)C(=O)N[C@H](C(=O)N[C@@H](CO)C(=O)N[C@@H](CC(=O)O)C(=O)N[C@H](C(=O)N[C@@](C)(CO)C(=O)N[C@@H](CO)C(=O)N[C@@](C)(Cc1ccccc1)C(=O)N[C@@H](CC(C)C)C(=O)N[C@@H](CCC(=O)O)C(=O)NCC(=O)N[C@@H](CCC(=O)O)C(=O)N[C@@H](C)C(=O)N[C@@H](C)C(=O)N[C@@](C)(CCCCN)C(=O)N[C@@H](CCC(=O)O)C(=O)N[C@@](C)(Cc1ccccc1)C(=O)N[C@H](C(=O)N[C@@H](C)C(=O)N[C@@](C)(Cc1ccccc1)C(=O)N[C@H](C(=O)N[C@H](C(=O)N[C@@](C)(CCCCN)C(=O)NCC(=O)NCC(N)=O)C(C)C)C(C)C)[C@@H](C)CC)C(C)C)[C@@H](C)O)C(=O)O` [compound 96] (H-H[Aib]EK([γGlu-Palmitoyl])S[αMeF]TSDV[αMeS]S[αMeF]LEGEAA[αMeK]E[αMeF]IA[αMeF]VV[αMeK]GG-NH2; N-terminus assumed), the EC50 in assay [1] (setting [4]) is 920 pM; in assay [1] (setting [5]) it was 570 pM; in assay [1] (setting [6]) it was 746 pM; in assay [2] (setting [7]) it was at least 27 nM; in assay [2] (setting [8]) it was at least 27 nM; in assay [3] (setting [9]), at least 27 nM. Also, the EC50 in assay [3] (setting [10]) was at least 27 nM.

As to `CCCCCCCCCCCCCCCC(=O)N[C@@H](CCC(=O)NCCCC[C@H](NC(=O)C(C)(C)NC(=O)[C@@H](N)Cc1c[nH]cn1)C(=O)NCC(=O)N[C@@H](CO)C(=O)N[C@@](C)(Cc1ccccc1)C(=O)N[C@H](C(=O)N[C@@H](CO)C(=O)N[C@@H](CC(=O)O)C(=O)N[C@H](C(=O)N[C@@](C)(CO)C(=O)N[C@@H](CO)C(=O)N[C@@](C)(Cc1ccccc1)C(=O)N[C@@H](CC(C)C)C(=O)N[C@@H](CCC(=O)O)C(=O)NCC(=O)N[C@@H](CCC(=O)O)C(=O)N[C@@H](C)C(=O)N[C@@H](C)C(=O)N[C@@](C)(CCCCN)C(=O)N[C@@H](CCC(=O)O)C(=O)N[C@@](C)(Cc1ccccc1)C(=O)N[C@H](C(=O)N[C@@H](C)C(=O)N[C@@](C)(Cc1ccccc1)C(=O)N[C@H](C(=O)N[C@H](C(=O)N[C@@](C)(CCCCN)C(=O)NCC(=O)NCC(N)=O)C(C)C)C(C)C)[C@@H](C)CC)C(C)C)[C@@H](C)O)C(=O)O` [compound 97] (H-H[Aib]K([γGlu-Palmitoyl])GS[αMeF]TSDV[αMeS]S[αMeF]LEGEAA[αMeK]E[αMeF]IA[αMeF]VV[αMeK]GG-NH2; N-terminus assumed), the EC50 in assay [1] (setting [4]) was at least 28000 pM; in assay [1] (setting [5]) it was at least 28000 pM; in assay [1] (setting [6]), at least 27800 pM; in assay [2] (setting [7]), at least 28 nM; in assay [2] (setting [8]), at least 28 nM; in assay [3] (setting [9]), at least 28 nM. In assay [3] (setting [10]), the EC50 was at least 28 nM.

Consider `CCCCCCCCCCCCCCCC(=O)N[C@@H](CCC(=O)NCCCC[C@H](NC(=O)[C@@H](N)Cc1c[nH]cn1)C(=O)N[C@@H](CCC(=O)O)C(=O)NCC(=O)N[C@@H](CO)C(=O)N[C@@](C)(Cc1ccccc1)C(=O)N[C@H](C(=O)N[C@@H](CO)C(=O)N[C@@H](CC(=O)O)C(=O)N[C@H](C(=O)N[C@@](C)(CO)C(=O)N[C@@H](CO)C(=O)N[C@@](C)(Cc1ccccc1)C(=O)N[C@@H](CC(C)C)C(=O)N[C@@H](CCC(=O)O)C(=O)NCC(=O)N[C@@H](CCC(=O)O)C(=O)N[C@@H](C)C(=O)N[C@@H](C)C(=O)N[C@@](C)(CCCCN)C(=O)N[C@@H](CCC(=O)O)C(=O)N[C@@](C)(Cc1ccccc1)C(=O)N[C@H](C(=O)N[C@@H](C)C(=O)N[C@@](C)(Cc1ccccc1)C(=O)N[C@H](C(=O)N[C@H](C(=O)N[C@@](C)(CCCCN)C(=O)NCC(=O)NCC(N)=O)C(C)C)C(C)C)[C@@H](C)CC)C(C)C)[C@@H](C)O)C(=O)O` [compound 98], for which the EC50 in assay [1] (setting [4]) is at least 28000 pM; in assay [1] (setting [5]), at least 28000 pM; in assay [1] (setting [6]), at least 27500 pM; in assay [2] (setting [7]), at least 28 nM; in assay [2] (setting [8]), at least 28 nM; in assay [3] (setting [9]) it was at least 28 nM. Further, the EC50 in assay [3] (setting [10]) was at least 28 nM.

For the origin of these results see patent US10414811B2, “Protease-resistant lipidated GLP-1 analogs” (MEDIMMUNE LIMITED, priority 2015, dated 2019).
